Source: ChEMBL document CHEMBL4837206, “Synthesis and biological evaluation of novel isoxazole-piperazine hybrids as potential anti-cancer agents with inhibitory effect on liver cancer stem cells” (Eur J Med Chem, 2021)
The source made the active and inactive calls. The rule behind the calls is not given here.

Experiments:
[1] = system: MCF7; test: Antiproliferative activity against human MCF7 cells assessed as reduction in cell viability measured after 72 hrs by SRB assay; assay type: functional, cell-based; settings: MCF7, 72 h
[2] = system: Huh-7; test: Antiproliferative activity against human Huh-7 cells assessed as reduction in cell viability measured after 72 hrs by SRB assay; assay type: functional, cell-based; settings: Huh-7, 72 h
[3] = system: Mahlavu; test: Antiproliferative activity against human Mahlavu cells assessed as reduction in cell viability measured after 72 hrs by SRB assay; assay type: functional, cell-based
[4] = system: Huh-7; test: Inhibition of cell stemness in human Huh-7 cells assessed as CD133+/EpCAM+ expression at 10 uM measured after 72 hrs by flow cytometry analysis (reference value: 29.92%); assay type: functional; design: scale not given: the % may be the effect or the level left
[5] = system: Huh-7; test: Inhibition of cell stemness in human Huh-7 cells assessed as reduction in size of tumor spheres at 10 uM incubated for 72 hrs followed by incubation in sphere formation medium for 7 days by microscopic analysis; assay type: functional, cell-based; settings: time 10.0 day
[6] = system: Huh-7; test: Inhibition of cell stemness in human Huh-7 cells assessed as reduction in tumor spheres count at 10 uM incubated for 72 hrs followed by incubation in sphere formation medium for 7 days by microscopic analysis; assay type: functional, cell-based; settings: time 10.0 day
[7] = system: Huh-7; test: Inhibition of cell stemness in human Huh-7 cells assessed as reduction in size of tumor spheres at 10 uM incubated for 72 hrs followed by incubation in sphere formation medium for 14 days by microscopic analysis; assay type: functional, cell-based; settings: time 17.0 day
[8] = Upregulation of NANOG mRNA expression in human Mahlavu cells at 10 uM incubated for 72 hrs by RT-qPCR analysis relative to control; assay type: functional
[9] = system: Huh-7; test: Upregulation of NANOG mRNA expression in human Huh-7 cells at 10 uM incubated for 72 hrs by RT-qPCR analysis; assay type: functional, cell-based
[10] = system: Mahlavu; test: Upregulation of OCT4 mRNA expression in human Mahlavu cells at 10 uM incubated for 72 hrs by RT-qPCR analysis; assay type: functional, cell-based
[11] = system: Huh-7; test: Upregulation of OCT4 mRNA expression in human Huh-7 cells at 10 uM incubated for 72 hrs by RT-qPCR analysis; assay type: functional, cell-based
[12] = system: Mahlavu; test: Upregulation of OCT4 level in human Mahlavu cells at 10 uM measured after 72 hrs by flow cytometry analysis; assay type: functional, cell-based

N#Cc1ccccc1COc1ccc(-c2cc(CN3CCN(Cc4ccc(C(F)(F)F)cc4)CC3)no2)cc1
IC50 [1]: 4000 nM | IC50 [2]: 5000 nM | IC50 [3]: 3500 nM

N#Cc1cccc(COc2ccc(-c3cc(CN4CCN(CC5CC5)CC4)no3)cc2)c1
IC50 [1]: 3500 nM | IC50 [2]: 2900 nM | IC50 [3]: 3200 nM

Cc1ccc(COc2ccc(-c3cc(CN4CCN(Cc5ccc(C(F)(F)F)cc5)CC4)no3)cc2)cc1
IC50 [1]: 1200 nM | IC50 [2]: 1500 nM | IC50 [3]: 7500 nM

Cc1ccccc1COc1ccc(-c2cc(CN3CCN(Cc4ccc(C(F)(F)F)cc4)CC3)no2)cc1
IC50 [1]: 3700 nM | IC50 [2]: 1200 nM | IC50 [3]: 6800 nM

N#Cc1cccc(COc2ccc(-c3cc(CN4CCN(Cc5ccc(C(F)(F)F)cc5)CC4)no3)cc2)c1
IC50 [1]: 800 nM | IC50 [2]: 100 nM | IC50 [3]: 10600 nM

Fc1ccccc1COc1ccc(-c2cc(CN3CCN(Cc4ccc(C(F)(F)F)cc4)CC3)no2)cc1
IC50 [1]: 3000 nM | IC50 [2]: 1500 nM | IC50 [3]: 3100 nM

N#Cc1cccc(COc2ccc(-c3cc(CN4CCN(c5ccc(F)cc5)CC4)no3)cc2)c1
IC50 [1]: 2400 nM | IC50 [2]: 1500 nM | IC50 [3]: 2200 nM

FC(F)(F)c1ccc(CN2CCN(Cc3cc(-c4ccc(OCc5ccc(Cl)cc5)cc4)on3)CC2)cc1
IC50 [1]: 6700 nM | IC50 [2]: 4000 nM | IC50 [3]: 3700 nM

Cc1cc(OCc2cccc(C#N)c2)ccc1-c1cc(CN2CCN(Cc3ccc(C(F)(F)F)cc3)CC2)no1
IC50 [1]: 400 nM | IC50 [2]: 1500 nM | IC50 [3]: 500 nM

COc1cc(COc2ccc(-c3cc(CN4CCN(Cc5ccc(C(F)(F)F)cc5)CC4)no3)cc2)cc(OC)c1OC
IC50 [1]: 1800 nM | IC50 [2]: 500 nM | IC50 [3]: 5800 nM

N#Cc1cccc(COc2ccc(-c3cc(CNC4CCN(Cc5ccccc5)CC4)no3)cc2)c1
IC50 [1]: 2500 nM | IC50 [2]: 2500 nM | IC50 [3]: 2100 nM

N#Cc1cccc(COc2ccc(-c3cc(CN4CCN(c5ccc(C(F)(F)F)cc5)CC4)no3)cc2)c1
IC50 [1]: 2000 nM | IC50 [2]: 2200 nM | IC50 [3]: 2700 nM

CC(C)(C)OC(=O)N1CCN(Cc2cc(-c3ccc(OCc4cccc(C#N)c4)cc3)on2)CC1
IC50 [1]: 3800 nM | IC50 [2]: 6100 nM | IC50 [3]: 5600 nM

COc1ccc(COc2ccc(-c3cc(CN4CCN(Cc5ccc(C(F)(F)F)cc5)CC4)no3)cc2)cc1
IC50 [1]: 1300 nM | IC50 [2]: 3200 nM | IC50 [3]: 4900 nM

N#Cc1cccc(COc2ccc(-c3cc(CN4CCN(Cc5ccc(C(F)(F)F)cc5)CC4)no3)c(F)c2)c1
IC50 [1]: 1200 nM | IC50 [2]: 400 nM | IC50 [3]: 400 nM

N#Cc1cccc(COc2ccc(-c3cc(CN4CCN(Cc5cccc(F)c5)CC4)no3)cc2)c1
IC50 [1]: 2400 nM | IC50 [2]: 2700 nM | IC50 [3]: 2600 nM

Cc1cc(C)cc(COc2ccc(-c3cc(CN4CCN(Cc5ccc(C(F)(F)F)cc5)CC4)no3)cc2)c1
IC50 [1]: 1600 nM | IC50 [2]: 600 nM | IC50 [3]: 6000 nM

N#Cc1cccc(COc2ccc(-c3cc(CN4CCN(C(=O)C5CCCO5)CC4)no3)cc2)c1 (stereo not given)
IC50 [1]: 3800 nM | IC50 [2]: 2200 nM | IC50 [3]: 4100 nM

Fc1cccc(COc2ccc(-c3cc(CN4CCN(Cc5ccc(C(F)(F)F)cc5)CC4)no3)cc2)c1
IC50 [1]: 2500 nM | IC50 [2]: 1300 nM | IC50 [3]: 2900 nM

COc1cc(COc2ccc(-c3cc(CN4CCN(Cc5ccc(C(F)(F)F)cc5)CC4)no3)cc2)cc(OC)c1
IC50 [1]: 100 nM | IC50 [2]: 1500 nM | IC50 [3]: 4300 nM

N#Cc1cccc(COc2ccc(-c3cc(CN4CCN(C(=O)c5ccco5)CC4)no3)cc2)c1
IC50 [1]: 1900 nM | IC50 [2]: 2000 nM | IC50 [3]: 2200 nM

N#Cc1cccc(COc2ccc(-c3cc(CN4CCN(CC5CCCO5)CC4)no3)cc2)c1 (stereo not given)
IC50 [1]: 8400 nM | IC50 [2]: 4200 nM | IC50 [3]: 4800 nM

N#Cc1ccc(COc2ccc(-c3cc(CN4CCN(Cc5ccc(C(F)(F)F)cc5)CC4)no3)cc2)cc1
IC50 [1]: 100 nM | IC50 [2]: 1000 nM | IC50 [3]: 4300 nM

Cc1cc(-c2cc(CN3CCN(Cc4ccc(C(F)(F)F)cc4)CC3)no2)ccc1OCc1cccc(C#N)c1
IC50 [1]: 700 nM | IC50 [2]: 600 nM | IC50 [3]: 450 nM

N#Cc1cccc(COc2ccc(-c3cc(CN4CCN(Cc5ccc(F)cc5)CC4)no3)cc2)c1
IC50 [1]: 1800 nM | IC50 [2]: 1600 nM | IC50 [3]: 1500 nM

COc1ccccc1COc1ccc(-c2cc(CN3CCN(Cc4ccc(C(F)(F)F)cc4)CC3)no2)cc1
IC50 [1]: 300 nM | IC50 [2]: 900 nM | IC50 [3]: 3900 nM

Cc1cccc(COc2ccc(-c3cc(CN4CCN(Cc5ccc(C(F)(F)F)cc5)CC4)no3)cc2)c1
IC50 [1]: 4000 nM | IC50 [2]: 5000 nM | IC50 [3]: 2500 nM

N#Cc1cccc(COc2ccc(-c3cc(CN4CCN(C(=O)C5CC5)CC4)no3)cc2)c1
IC50 [1]: 7600 nM | IC50 [2]: 2800 nM | IC50 [3]: 4400 nM

N#Cc1cccc(COc2ccc(-c3cc(CN4CCN(Cc5ccccc5F)CC4)no3)cc2)c1
IC50 [1]: 1400 nM | IC50 [2]: 2400 nM | IC50 [3]: 2300 nM

FC(F)(F)c1ccc(CN2CCN(Cc3cc(-c4ccc(OCc5cccc(Cl)c5)cc4)on3)CC2)cc1
IC50 [1]: 1400 nM | IC50 [2]: 200 nM | IC50 [3]: 4100 nM

COc1cccc(COc2ccc(-c3cc(CN4CCN(Cc5ccc(C(F)(F)F)cc5)CC4)no3)cc2)c1
IC50 [1]: 2000 nM | IC50 [2]: 800 nM | IC50 [3]: 1400 nM

N#Cc1cccc(COc2ccc(-c3cc(CN4CCN(C(=O)c5ccco5)CC4)no3)cc2F)c1
IC50 [1]: 1500 nM | IC50 [2]: 8100 nM | IC50 [3]: 3600 nM

Fc1ccc(COc2ccc(-c3cc(CN4CCN(Cc5ccc(C(F)(F)F)cc5)CC4)no3)cc2)cc1
IC50 [1]: 7900 nM | IC50 [2]: 2000 nM | IC50 [3]: 3100 nM

CC(C)(C)OC(=O)N1CCC(NCc2cc(-c3ccc(OCc4cccc(C#N)c4)cc3)on2)CC1
IC50 [1]: 2800 nM | IC50 [2]: 1500 nM | IC50 [3]: 3000 nM

FC(F)(F)c1ccc(CN2CCN(Cc3cc(-c4ccc(OCc5ccccc5Cl)cc4)on3)CC2)cc1
IC50 [1]: 2800 nM | IC50 [2]: 1000 nM | IC50 [3]: 3200 nM

CNC(=O)c1cc(Oc2ccc(NC(=O)Nc3ccc(Cl)c(C(F)(F)F)c3)cc2)ccn1 [SORAFENIB]
Activity [4]: 36.16% | inhibition [5]: Active | inhibition [6]: inactive | inhibition [7]: inactive | fold change (FC) [8]: 10 | Activity [9]: Active | Activity [10]: Active | Activity [11]: Active | Activity [12]: Active

N#Cc1cccc(COc2ccc(-c3cc(CNC4CCN(Cc5ccccc5)CC4)no3)cc2F)c1
IC50 [1]: 2700 nM | IC50 [2]: 2300 nM | IC50 [3]: 2700 nM

N#Cc1cccc(COc2ccc(-c3cc(CN4CCN(c5ccc(C(F)(F)F)cn5)CC4)no3)cc2)c1
IC50 [1]: 1400 nM | IC50 [2]: 1700 nM | IC50 [3]: 1300 nM
